From patent US7488577B2, “Method for measuring DNA polymerization and applications of the method” (Cavidi Tech AB, priority 2001, dated 2009)
Like-named read-outs stand apart in the source and are kept apart here.

What was measured:
[1] = tested on: T69S→SS/L210W/T215Y HIV-1 mutant RT; test: Inhibition of second strand synthesis on variable DNA template, standard reaction solution versus reaction solution with ATP; assay type: biochemical; settings: 4 pg/well RT, 19 hours
Experimental: The procedure for production of recombinant HIV-1 RTs with AZT specific mutations were similar but the mutations were introduced into the RT-coding region from the HXB2-D isolate.
The DNA polymerase γ and Retro DNA polymerase reaction mixture was reinforced with 3.2 mM ATP and pH was adjusted to 7.1.
The duration of the polymerization reactions was 19 hours. The RT activities obtained were recalculated into % of the activity of the same RT incubated in absence of inhibitor.
Symbols: HIV-1 wild type RT in standard DNA polymerase reaction solution (◯). HIV-1 wild type RT in DNA polymerase reaction solution with ATP (●), T69S→SS/L210W/T215Y HIV-1 mutant RT in standard DNA polymerase reaction solution (⋄),
T69S→SS/L210W/T215Y HIV-1 mutant RT in DNA polymerase reaction solution with ATP(♦).

[2] = molecular target: T1, recombinant DNA polymerase III (Staphylococcus aureus, UniProt P0C1P9); test: Inhibition of DNA polymerase III with TMAU on different templates; assay type: biochemical; settings: templates (CTGA)6-A12 or (CTG)6-A3; 1.25 ng/well enzyme, one hour, GTP […]
T1 construct: made in house
T1 sequence (P0C1P9 1-1435): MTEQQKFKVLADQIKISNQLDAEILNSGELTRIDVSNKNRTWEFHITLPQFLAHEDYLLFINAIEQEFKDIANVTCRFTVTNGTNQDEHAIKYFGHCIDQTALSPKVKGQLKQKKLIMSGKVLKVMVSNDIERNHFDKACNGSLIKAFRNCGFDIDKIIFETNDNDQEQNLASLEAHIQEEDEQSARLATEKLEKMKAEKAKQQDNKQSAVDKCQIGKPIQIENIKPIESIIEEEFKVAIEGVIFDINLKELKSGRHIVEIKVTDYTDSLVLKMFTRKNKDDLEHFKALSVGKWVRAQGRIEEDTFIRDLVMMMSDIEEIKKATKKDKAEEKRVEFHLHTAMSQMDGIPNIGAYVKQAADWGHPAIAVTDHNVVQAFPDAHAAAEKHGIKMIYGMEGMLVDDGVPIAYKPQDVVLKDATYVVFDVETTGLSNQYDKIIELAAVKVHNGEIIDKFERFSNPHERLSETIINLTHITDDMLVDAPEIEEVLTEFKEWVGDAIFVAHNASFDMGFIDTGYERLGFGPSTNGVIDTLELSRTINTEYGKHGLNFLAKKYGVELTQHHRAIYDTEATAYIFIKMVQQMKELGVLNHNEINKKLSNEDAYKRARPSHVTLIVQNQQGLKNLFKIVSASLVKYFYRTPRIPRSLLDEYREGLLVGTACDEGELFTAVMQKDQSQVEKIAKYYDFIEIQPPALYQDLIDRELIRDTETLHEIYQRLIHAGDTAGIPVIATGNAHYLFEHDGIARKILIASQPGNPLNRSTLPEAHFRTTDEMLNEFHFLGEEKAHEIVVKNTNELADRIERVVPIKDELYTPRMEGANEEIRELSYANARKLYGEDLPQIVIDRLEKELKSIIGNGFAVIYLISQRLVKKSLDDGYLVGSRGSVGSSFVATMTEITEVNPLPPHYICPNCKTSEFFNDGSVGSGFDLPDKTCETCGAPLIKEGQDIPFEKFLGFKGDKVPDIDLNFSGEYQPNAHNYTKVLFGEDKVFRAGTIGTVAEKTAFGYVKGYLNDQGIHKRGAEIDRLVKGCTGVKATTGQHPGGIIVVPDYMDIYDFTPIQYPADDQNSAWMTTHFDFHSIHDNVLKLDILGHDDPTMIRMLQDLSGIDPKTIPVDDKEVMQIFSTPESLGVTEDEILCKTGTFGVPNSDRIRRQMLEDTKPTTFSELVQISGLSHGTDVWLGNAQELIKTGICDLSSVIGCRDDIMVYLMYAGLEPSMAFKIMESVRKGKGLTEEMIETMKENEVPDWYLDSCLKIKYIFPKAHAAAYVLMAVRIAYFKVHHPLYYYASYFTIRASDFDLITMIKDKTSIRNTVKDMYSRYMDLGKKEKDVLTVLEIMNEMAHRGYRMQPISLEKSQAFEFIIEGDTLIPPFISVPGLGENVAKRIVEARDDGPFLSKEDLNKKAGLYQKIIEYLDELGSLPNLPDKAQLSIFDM
Experimental: DNA polymerase I (E. coli) was purchased from Amersham Bioscience. Recombinant DNA polymerase III from Staphylococus aureus was produced as described (Brown et al 1998). Mammalian DNA polymerase α (calf thymus) and β (human) were purchased from CHIMERx (Milwaukee). DNA polymerase γ was purified from beef heart as described (Pileur et al 2000).
(2-(N-Morpholino)ethanesulfonic acid) (MES) 40 mM pH 6.8, Potassium acetate (KAc) 40 mM, MgCl2 10 mM, spermine 2 mM, polyoxyethylenesorbitan monolaureate (Tween 20) 0.5%(v/v), EDTA 0.1 mM, dithiothreitol 1 mM and bovine serum albumin (BSA) 50 μg/ml.
6-anilinouracils are selective inhibitors of DNA polymerase III from gram-positive bacteria. […] The drug TMAU can be regarded as an analogue to […]. […]

[3] = molecular target: T2, recombinant HIV 1 RT wild type (Human immunodeficiency virus type 1 group M subtype B, UniProt P03366); test: biochemical
Text: The DNA-polymerase assay is based on a short primer with a specific sequence that is covalently bound to the wells of a 96 well microtiter plate. The reaction mixture contains a single stranded deoxynucleotide template with a part of the sequence complementary to the primer and the four deoxynucleoside triphosphates. Thymidine triphosphate is, however, replaced by 5-bromodeoxyuridine 5′-triphosphate (BrdUTP). The amount of bromodeoxyuridine monophosphate (BrdUMP) incorporated into DNA during the polymerase reaction, is detected with an alkaline phosphatase (Ap) conjugated anti-BrdU monoclonal antibody. An Ap substrate, 4-methylumbelliferyl phosphate, is used for fluorimetric product detection.
The inhibition studies were performed in a modified DNA polymerase assay. The drugs were serially diluted in five steps and 25 μl aliquots were transferred to each well in the microtiter plate, mixed with 100 μl DNA polymerase reaction mixture and the enzyme reaction was initiated by addition of 25 μl enzyme dilution. […] The polymerase reaction was allowed to proceed over-night (16-24 hours at 33° C.). Thereafter the reaction was terminated by a wash of the plate.
The polymerase activity at each inhibitor concentration was recalculated into % of the activity of a control in absence of inhibitor. The results are depicted in FIG. 3.
(§1) The effects of three non-nucleoside inhibitors on indicated recombinant HIV 1 RT were determined according to “Protocol for determination of inhibition of second strand synthesis on variable DNA template” using DNA polymerase γ and Retro DNA polymerase base buffer and “Protocol for determination of inhibition of reverse transcription ” respectively.

[4] = molecular target: T2, recombinant HIV 1 RT wild type; test: biochemical; parameters: The mutated and native forms of RT were isolated as previously described; made in house; settings: IC50 on template prA, RT type wt, first strand synthesis, 2 hours
Experimental: In short, poly(rA) covalently bound to the wells of a 96 well microtiter plate serves as template for the incorporation of 5-bromodeoxyuridine 5′-triphosphate (BrdUTP) during the reverse transcription step at 33° C. The amount of bromodeoxyuridine monophosphate (BrdUMP) incorporated into DNA, is detected with an alkaline phosphatase (Ap) conjugated anti-BrdU monoclonal antibody. An Ap substrate, 4-methylumbelliferyl phosphate, is finally used for fluorimetric detection.
as §1

With `C[C@@H](Cn1cnc2c(N)ncnc21)OCP(=O)(O)OP(=O)(O)OP(=O)(O)O` the “Increase of the difference in drug susceptibility between wild type and mutant RT” value [1] was “approximately 10 fold”.
With `O=c1cc(Nc2ccc3c(c2)CCC3)[nH]c(=O)[nH]1` [TMAU, 6-([3,4-trimethylene]anilino)uracil] the “Inhibitory capacity towards DNA polymerase III” value [2] was “varying inhibitory capacity depending on the sequence of the template used”.
In the case of `Nc1ccn(C2CCC(COP(=O)(O)OP(=O)(O)OP(=O)(O)O)O2)c(=O)n1` (stereo not shown) [ddCTP, 2′3′ dideoxy cytidine triphosphate], the IC50 [3] is reported as 20 nM.
`O=C(O)P(=O)(O)O` [Foscarnet] gave an IC50 [3] of 500 nM, an IC50 ([4]; RT amount 20 fg) of 600 nM and an IC50 ([4]; RT amount 100 fg) of 700 nM.
With `Nc1ncnc2c1ncn2C1CCC(COP(=O)(O)OP(=O)(O)OP(=O)(O)O)O1` (stereo not shown) [ddATP, 2′3′ dideoxyadenosine triphosphate] the IC50 [3] was 80 nM.
